pEC50, pIC50: −log10 of the molar value.
Legend:
[1] = molecular target: T1, human complement factor D (Homo sapiens, UniProt P00746); experiment: In vitro enzyme inhibition (Z-Lys-SBzl/DTNB absorbance assay); type: biochemical; settings: Complement Factor D (R&D Systems), substrate Z-Lys-SBzl, A405 nm; read-out: CFD IC50
T1 construct: purchased R&D Systems 1824-SE
How it was run: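 Factor D (6.25 ng/μL before addition) preincubated 5 min RT with compound (8 points from 50 μM, 6-fold, 0.5% DMSO final) in 50 mM Tris/HCl pH 7.5, 1 M NaCl, then Z-Lys-SBzl/DTNB added (200 μM each before addition). A405 read kinetically every 30 s for 60 min; IC50 from variable-slope fit, controls with and without enzyme.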

[2] = test system: alternative pathway (AP) hemolytic activity; experiment: AP hemolysis inhibition assay; type: cell-based; settings: Erythrocyte, 1 h; Normal Human Serum, chicken or rabbit erythrocytes, 60 min at 37° C., OD 414 nm
Experimental: The ability of the compounds disclosed herein to inhibit alternative pathway (AP) hemolytic activity was determined. Red blood cells (RBC), chicken or rabbit erythrocyctes (SbjBio), were washed three time using assay buffer containing 0.1% gelatin, 5 mM Veronal, 145 mM NaCl, 0.025% NaN3, 10 mM Mg-EGTA pH 7.3. In 100 μL reaction system, 1300 to 1500 ng/μL final concentration of Normal Human Serum (CompTech) was incubated with compound for 15 min at 37° C. Then 2×10^6 cells/well of chicken or rabbit erythrocytes in assay buffer were added and incubated for an additional 60 min at 37° C. Positive control (100% lysis) consists of serum and RBC, and negative control (0% lysis) consists of assay buffer and RBC only. Samples were centrifuged at 2000 g for 5 min, and supernatants collected. Optical density of the supernatant is monitored at 414 nm using Synergy 2 (BioTek). Percentage lysis in each sample is calculated relative to positive control (100% lysis).
Table 3 discloses the inhibitory activity of the compounds provided herein in the hemolysis assay.

T1 sequence (P00746 26-253): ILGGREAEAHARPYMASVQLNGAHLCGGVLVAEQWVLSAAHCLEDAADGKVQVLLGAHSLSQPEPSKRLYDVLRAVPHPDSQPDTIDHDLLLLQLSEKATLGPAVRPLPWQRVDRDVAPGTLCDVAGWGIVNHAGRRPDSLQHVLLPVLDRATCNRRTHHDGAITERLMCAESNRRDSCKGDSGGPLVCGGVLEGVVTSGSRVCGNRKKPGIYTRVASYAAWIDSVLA

Compound	pIC50 [1]	pEC50 [2]
NC(=O)c1nn(CC(=O)N2CCCC[C@H]2C(=O)Nc2cccc(Cl)n2)c2ccccc12 [Example 21, (S)-1-(2-(2-((6-chloropyridin-2-yl)carbamoyl)piperidin-1-yl)-2-oxoethyl)-1H-indazole-3-carboxamide]	6.00 to 7.00	5.00 to 6.00
NC(=O)c1nn(CC(=O)N2[C@@H]3CC[C@@H](C3)[C@H]2C(=O)NCc2cccc(Cl)c2F)c2ccccc12 [Example 38, 1-(2-((1R,3S,4S)-3-((3-chloro-2-fluorobenzyl)carbamoyl)-2-azabicyclo[2.2.1]heptan-2-yl)-2-oxoethyl)-1H-indazole-3-carboxamide]	6.00 to 7.00	5.00 to 6.00
COc1ccc(Cl)nc1NC(=O)[C@@H]1[C@H]2CC[C@H](C2)N1C(=O)Cn1nc(C(N)=O)c2ccccc21 [Example 96, 1-(2-((1R,3S,4S)-3-((6-chloro-3-methoxypyridin-2-yl)carbamoyl)-2-azabicyclo[2.2.1]heptan-2-yl)-2-oxoethyl)-1H-indazole-3-carboxamide]	> 7.00	> 7.00
NC(=O)c1nn(CC(=O)N2C(C(=O)NCc3cccc(Cl)c3F)[C@@H]3C[C@@H](O)[C@H]2[C@H]3O)c2ccccc12 (stereo partly drawn) [Example 152, 1-(2-((1S,4S,6R,7S)-3-((3-chloro-2-fluorobenzyl)carbamoyl)-6,7-dihydroxy-2-azabicyclo[2.2.1]heptan-2-yl)-2-oxoethyl)-1H-indazole-3-carboxamide]	6.00 to 7.00	6.00 to 7.00
NC(=O)n1cc(NC(=O)N2[C@@H]3CC[C@@H](C3)[C@H]2C(=O)Nc2cccc(Cl)n2)c2ccccc21 [Example 156, (1R,3S,4S)-N2-(1-carbamoyl-1H-indol-3-yl)-N3-(6-chloropyridin-2-yl)-2-azabicyclo[2.2.1]heptane-2,3-dicarboxamide]	6.00 to 7.00	6.00 to 7.00
NC(=O)c1nn(CC(=O)N2[C@H](C(=O)NCc3cccc(Cl)c3F)C[C@@H]3CCC[C@@H]32)c2ccccc12 [Example 157, 1-(2-((2S,3aS,6aS)-2-((3-chloro-2-fluorobenzyl)carbamoyl)hexahydrocyclopenta[b]pyrrol-1(2H)-yl)-2-oxoethyl)-1H-indazole-3-carboxamide]	> 7.00	6.00 to 7.00
NC(=O)c1nn(CC(=O)N2[C@H](C(=O)NCc3cccc(Cl)c3F)C[C@@H]3CCC[C@@H]32)c2cc(F)ccc12 [Example 167, 1-(2-((2S,3aS,6aS)-2-((3-chloro-2-fluorobenzyl)carbamoyl)hexahydrocyclopenta[b]pyrrol-1(2H)-y1)-2-oxoethyl)-6-fluoro-1H-indazole-3-carboxamide]	> 7.00	6.00 to 7.00
NC(=O)c1nn(CC(=O)N2[C@H](C(=O)Nc3cccc(Cl)n3)C[C@@H]3CCC[C@@H]32)c2ccc(F)cc12 [Example 169, 1-(2-((2S,3aS,6aS)-2-((6-chloropyridin-2-yl)carbamoyl)hexahydrocyclopenta[b]pyrrol-1(2H)-yl)-2-oxoethyl)-5-fluoro-1H-indazole-3-carboxamide]	6.00 to 7.00	6.00 to 7.00
NC(=O)c1nn(CC(=O)N2CC[C@H]2C(=O)NCc2cccc(Cl)c2F)c2ccccc12 [Example 185, (S)-1-(2-(2-((3-chloro-2-fluorobenzyl)carbamoyl)azetidin-1-yl)-2-oxoethyl)-1H-indazole-3-carboxamide]	> 7.00	> 7.00

Now from value to molecule, other results behind:

pIC50 [1]	Compound	pEC50 [2]
6.00 to 7.00	NC(=O)c1nn(CC(=O)N2[C@@H]3CC[C@@H](C3)[C@H]2C(=O)Nc2cccc(Cl)n2)c2ccc(C3CC3)cc12 [Example 56, 1-(2-((1R,3S,4S)-3-((6-chloropyridin-2-yl)carbamoyl)-2-azabicyclo[2.2.1]heptan-2-yl)-2-oxoethyl)-5-cyclopropyl-1H-indazole-3-carboxamide 2,2,2-trifluoroacetate]	6.00 to 7.00
> 7.00	NC(=O)c1nn(CC(=O)N2[C@@H]3CC[C@@H](C3)[C@H]2C(=O)Nc2cncc(Cl)n2)c2ccccc12 [Example 59, 1-(2-((1R,3S,4S)-3-((6-chloropyrazin-2-yl)carbamoyl)-2-azabicyclo[2.2.1]heptan-2-yl)-2-oxoethyl)-1H-indazole-3-carboxamide]	6.00 to 7.00
> 7.00	NC(=O)c1nn(CC(=O)N2[C@@H]3CC[C@@H](C3)[C@H]2C(=O)Nc2cccc(Br)n2)c2ccccc12 [Example 65, 1-(2-((1R,3S,4S)-3-((6-bromopyridin-2-yl)carbamoyl)-2-azabicyclo[2.2.1]heptan-2-yl)-2-oxoethyl)-1H-indazole-3-carboxamide]	6.00 to 7.00
6.00 to 7.00	CC(=O)c1nn(CC(=O)N2[C@@H]3CC[C@@H](C3)[C@H]2C(=O)Nc2cccc(Cl)n2)c2cnccc12 [Example 66, (1R,3S,4S)-2-(2-(3-acetyl-1H-pyrazolo[3,4-c]pyridin-1-yl)acetyl)-N-(6-chloropyridin-2-yl)-2-azabicyclo[2.2.1]heptane-3-carboxamide]	6.00 to 7.00
> 7.00	NC(=O)c1nn(CC(=O)N2[C@@H]3CC[C@@H](C3)[C@H]2C(=O)Nc2cccc(Cl)n2)c2cc(F)ccc12 [Example 71, 1-(2-((1R,3S,4S)-3-((6-chloropyridin-2-yl)carbamoyl)-2-azabicyclo[2.2.1]heptan-2-yl)-2-oxoethyl)-6-fluoro-1H-indazole-3-carboxamide]	6.00 to 7.00
6.00 to 7.00	Cc1cc(Cl)nc(NC(=O)[C@@H]2[C@H]3CC[C@H](C3)N2C(=O)Cn2nc(C(N)=O)c3ccccc32)c1 [Example 77, 1-(2-((1R,3S,4S)-3-((6-chloro-4-methylpyridin-2-yl)carbamoyl)-2-azabicyclo[2.2.1]heptan-2-yl)-2-oxoethyl)-1H-indazole-3-carboxamide]	6.00 to 7.00
> 7.00	CC(=O)c1nn(CC(=O)N2[C@@H]3CC[C@@H](C3)[C@H]2C(=O)Nc2cccc(Cl)n2)c2ccccc12 [Example 80, (1R,3S,4S)-2-(2-(3-acetyl-1H-indazol-1-yl)acetyl)-N-(6-chloropyridin-2-yl)-2-azabicyclo[2.2.1]heptane-3-carboxamide]	6.00 to 7.00
6.00 to 7.00	NC(=O)c1nn(CC(=O)N2[C@@H]3CC[C@@H](C3)[C@H]2C(=O)Nc2cccc(Cl)n2)c2cc(N)ccc12 [Example 93, 6-amino-1-(2-((1R,3S,4S)-3-((6-chloropyridin-2-yl)carbamoyl)-2-azabicyclo[2.2.1]heptan-2-yl)-2-oxoethyl)-1H-indazole-3-carboxamide 2,2,2-trifluoroacetate]	6.00 to 7.00
> 7.00	NC(=O)c1nn(CC(=O)N2[C@@H]3CC[C@@H](C3)[C@H]2C(=O)Nc2cc(C(=O)O)cc(Cl)n2)c2ccccc12 [Example 104, 2-((1R,3S,4S)-2-(2-(3-carbamoyl-1H-indazol-1-yl)acetyl)-2-azabicyclo[2.2.1]heptane-3-carboxamido)-6-chloroisonicotinic acid]	> 7.00
6.00 to 7.00	COC(=O)c1ccc2c(C(N)=O)nn(CC(=O)N3[C@@H]4CC[C@@H](C4)[C@H]3C(=O)Nc3cccc(Cl)n3)c2c1 [Example 122, methyl 3-carbamoyl-1-(2-((1R,3S,4S)-3-((6-chloropyridin-2-yl)carbamoyl)-2-azabicyclo[2.2.1]heptan-2-yl)-2-oxoethyl)-1H-indazole-6-carboxylate]	6.00 to 7.00
> 7.00	NC(=O)c1nn(CC(=O)N2[C@@H]3CC[C@@H](C3)[C@H]2C(=O)Nc2cccc(Cl)n2)c2cc(C(=O)O)ccc12 [Example 123, 3-carbamoyl-1-(2-((1R,3S,4S)-3-((6-chloropyridin-2-yl)carbamoyl)-2-azabicyclo[2.2.1]heptan-2-yl)-2-oxoethyl)-1H-indazole-6-carboxylic acid]	> 7.00
6.00 to 7.00	NC(=O)c1nn(CC(=O)N2[C@@H]3CC[C@@H](C3)[C@H]2C(=O)Nc2cccc(Cl)n2)c2cc(CO)ccc12 [Example 125, 1-(2-((1R,3S,4S)-3-((6-chloropyridin-2-yl)carbamoyl)-2-azabicyclo[2.2.1]heptan-2-yl)-2-oxoethyl)-6-(hydroxymethyl)-1H-indazole-3-carboxamide]	6.00 to 7.00
6.00 to 7.00	NC(=O)c1nn(CC(=O)N2[C@H](C(=O)Nc3cccc(Cl)n3)C[C@@H]3CCC[C@@H]32)c2ccccc12 [Example 159, 1-(2-((2S,3aS,6aS)-2-((6-chloropyridin-2-yl)carbamoyl)hexahydrocyclopenta[b]pyrrol-1(2H)-yl)-2-oxoethyl)-1H-indazole-3-carboxamide]	6.00 to 7.00
> 7.00	Cc1ccc2c(c1)c(C(N)=O)nn2CC(=O)N1[C@H](C(=O)Nc2cccc(Cl)n2)C[C@@H]2CCC[C@@H]21 [Example 168, 1-(2-((2S,3aS,6aS)-2-((6-chloropyridin-2-yl)carbamoyl)hexahydrocyclopenta[b]pyrrol-1(2H)-yl)-2-oxoethyl)-5-methy1-1H-indazole-3-carboxamide]	6.00 to 7.00

From US20190127366A1 (LifeSci Pharmaceuticals, Inc., priority 2015, published 2019)
